Data as given in US7884116B2, “Octahydronaphthalene derivative and medicine” (Nippon Shinyaku Co., Ltd., priority 2003, dated 2011).
Marks after values point to notes of the source that are not given here.

Key:
[1] = test system: footpad thickness, MeHSA-sensitized C57BL/6 mouse; test: Methylated human serum albumin-induced delayed hypersensitivity test (MeHSA-DTH); assay type: in vivo; conditions: oral, twice, footpad thickness 24 hours after induction
Description: Methylated human serum albumin (MeHSA) was dissolved in physiological saline to 5 mg/ml, which was then mixed with an equal volume of the complete Freund's adjuvant (manufactured by Iatron), to prepare an emulsion. Next, 100 μl of the prepared emulsion was injected subcutaneously into a 8-week-old male C57BL/6 mouse, for antigen sensitization. Seven days thereafter, MeHSA was dissolved in physiological saline to 1 mg/ml, which was injected at 25 μl subcutaneously into the footpad of the right hind limb, to trigger a reaction. The thickness of the footpad was measured 24 hours after the induction of the reaction, to calculate the difference from the thickness thereof before the induction of the reaction, to make an assessment. Additionally, drugs were orally given twice, namely one hour before the induction of the reaction and 16 hours after the induction thereof.

[2] = test system: ICAM-1 expressed on HUVEC; test: Test about suppression of ICAM-1 expression (enzyme immuno assay, EIA), TNF-α-stimulated HUVEC; assay type: cell-based; conditions: Homo sapiens, TNF-α 0.3 ng/ml
Description: Using a culture broth containing serum for vascular endothelial cell (manufactured by Nissui Pharmaceutical Co., Ltd.) as a culture medium, HUVEC (umbilical vein endothelial cell manufactured by Morinaga Bioscience Institute) was cultured in a collagen-treated flask by the routine method.
For carrying out a test about the suppression of ICAM-1 expression with HUVEC, a collagen-treated 96-well plate was used, where HUVEC was added at 1 to 2×10^4 cells/well while the culture medium was added at 100 to 200 μl/well. The cell was cultured in 5% CO2 at 37° C. for 48 to 72 hours. Before adding a test solution, the culture medium (80 μl) was exchanged, to which 10 μl of a test solution preliminarily diluted was then added. The plate was allowed to stand alone in a CO2 incubator. 2 hours later, 10 μl of TNF-α (recombinant human TNF-α, manufactured by Genzyme) was added (to a final concentration of 0.3 ng/ml). The resulting plate was again allowed to stand alone in the CO2 incubator. 16 to 22 hours later, the cell was fixed with 1% p-formaldehyde solution. The cell was rinsed with a phosphate buffer containing Ca^2+ and Mg^2+, which was then treated with an anti-human ICAM-1 antibody (mouse IgG1, manufactured by Kyowa Medics) at ambient temperature for 30 minutes. After the cell was rinsed again with the phosphate buffer, the cell was treated with a peroxide-labeled anti-mouse IgG (H+L) (manufactured by Organon Teknik Corp.) for another 30 minutes. After the cell was again rinsed with the phosphate buffer, the color developed was measured, using a peroxidase chromogenic kit (manufactured by Sumitomo Bakelite Co., Ltd.), to determine ICAM-1 expressed on HUVEC as an expression-inhibiting ratio (%) to a non-drug group to calculate the IC50 value.

[3] = test system: Hepatocyte (normal human liver cell); test: Test about the suppression of cell growth (MTT); assay type: cell-based; conditions: 72 h, 3 days
Description: (§1) Various cancer cells and normal cell as cultured in a culture broth to 70 to 90% confluency were used. After the culture broth was removed, 0.25% trypsin/1 mM-EDTA solution was added to scrape off the cells and count the cells. Then, a cell suspension of 5×10^4 cells/ml was prepared. The suspension was divided at 90 μl/well into a 96-well plate, and allowed to stand alone in a CO2 incubator. On the next day, (a 0 to 10 μM test drug (the compound of Example 5) was added at 10 μl/well, for gentle shaking for sufficiently mixing the test drug with the liquid culture. After culturing for 3 days, each 10-μl portion of aqueous 5 mg/ml MTT (3-(4,5-dimethylthiazol-2-yl)-2,5-diphenyltetrazolium bromide) solution was added. After culturing in the CO2 incubator for another 4 hours, 100 μl of a 2-propanol solution containing 0.04N hydrochloric acid was added to each well, for terminating the reaction. The generated MTT formazan was sufficiently dissolved with a multi-channel pipette, to measure the absorbance at 595 nm, using a control wavelength of 655 nm. The measured absorbance was analyzed by non-linear regression analysis using a model formula by the MTT method, to calculate the concentration at which the cell growth was inhibited by 50% (IC50). The cells used at this test and the culture broths therefor are as shown below. • 1) Cell: A549 (human lung cancer cell, Human Science Foundation) • Culture broth: DMEM (Dulbecco's modified Eagle medium)+10% FBS (fetal bovine serum) • 2) Cell: PC-3 (human prostate cancer cell, ATCC) • Culture broth: DMEM+10% FBS • 3) Cell: AsPC-1 (human pancreas cancer cell, Tokyo University) • Culture broth: DMEM+10% FBS • 4) Cell: HT-1080 (human fibrosarcoma cell, ATCC) • Culture broth: DMEM+10% FBS • 5) Cell: Hepatocyte (normal human liver cell, ACRBI) • Culture broth: CS-C (Cell Systems) • 6) Cell: NHDF (normal human fibroblast cell, Kurabo) • Culture broth: DMEM+10% FBS • 7) Cell: BAE (normal bovine aorta vascular endothelial cell, ACRBI) • Culture broth: CS-C (Cell systems)

[4] = test system: AsPC-1 (human pancreas cancer cell); test: Test about the suppression of cell growth (MTT); assay type: cell-based; conditions: ASPC1, 72 h, AsPC-1, 3 days
Description: as §1

[5] = test system: HT-1080 (human fibrosarcoma cell); test: Test about the suppression of cell growth (MTT); assay type: cell-based; conditions: 72 h, HT-1080, 3 days
Description: as §1

[6] = test system: A549 (human lung cancer cell); test: Test about the suppression of cell growth (MTT); assay type: cell-based; conditions: 72 h, A549, 3 days
Description: as §1

[7] = test system: BAE (normal bovine aorta vascular endothelial cell); test: Test about the suppression of cell growth (MTT); assay type: cell-based; conditions: Bos taurus, 72 h, 3 days
Description: as §1

[8] = test system: PC-3 (human prostate cancer cell); test: Test about the suppression of cell growth (MTT); assay type: cell-based; conditions: 72 h, PC-3, 3 days
Description: as §1

[9] = test system: NHDF (normal human fibroblast cell); test: Test about the suppression of cell growth (MTT); assay type: cell-based; conditions: 72 h, 3 days
Description: as §1

[10] = test system: collagen-induced arthritis, DBA/1J mouse; test: Test using collagen arthritis model in mouse; assay type: in vivo; conditions: 30 mg/kg, oral daily after secondary sensitization, two weeks after secondary sensitization, non-drug group 5.7
Description: Type II collagen derived from bovine joint was dissolved in 0.1 M acetate saline to 2 mg/ml, with which an equal volume of the complete Freund's adjuvant (manufactured by Iatron) was mixed, to prepare an emulsion. For primary sensitization, the emulsion was injected intracutaneously into the tail root of a 8-week-old male DBA/1J mouse. Twenty-one days thereafter, 0.1 ml of an emulsion prepared in the same manner was intracutaneously injected into the dorsal part of the mouse, for secondary sensitization, to trigger the onset of arthritis. Two weeks after the secondary sensitization, the symptoms of arthritis were visually observed (0: normal; 1: swelling and reddening of finger tips; 2: mild swelling and reddening of parts distal from joints of hands and foots; 3: severe swelling and reddening of parts distal from joints of hands and foots). The symptoms of arthritis were observed individually over the four limbs. The total was defined as the arthritis score of an individual. Further, a test drugs was suspended in 0.5% methyl cellulose and orally given daily after the secondary sensitization.

IC50 [4]: 113 nM | IC50 [5]: 70 nM | IC50 [6]: 85 nM | IC50 [8]: 67 nM
Compound: C/C(=C\C=C\[C@@H]1[C@H]2[C@H](C)[C@@H](O)[C@H](C)C[C@@H]2C=C[C@@H]1C)C(=O)NCc1cccnc1 [Example 5, N-(Pyridin-3-ylmethyl)-(2E,4E)-5-[(1S,2S,4aR,6R,7S,8S,8aS)-7-hydroxy-2,6,8-trimethyl-1,2,4a,5,6,7,8,8a-octahydronaphthalen-1-yl]-2-methylpenta-2,4-dienamide]
Suppression ratio (%) ([1]; 10 mg/kg): 27.5* % | Suppression ratio (%) ([1]; 30 mg/kg): 51.5** % | IC50 [2]: 170 nM | IC50 [3]: 430 nM | IC50 [7]: 9.4 µM | IC50 [9]: 600 nM | Arthritis score [10]: 2.1*
